Some test systems named below: M19-MEL melanoma; DMS 273 small cell lung; DLD-1 colon; DMS 114 small cell lung; HOP-18 NSCLC; XF 498 CNS; NCI/ADR-RES ovarian; T-47D breast; MDA-N.
Assay in all cases: NCI anticancer screen, dose series, 48 h

In brackets after ≈: the same amount, converted by molar mass. Several values for one entry are separate records, joined by “and”; a condition that tells them apart may be missing. Identical values can stand only once.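 Grown in 96-well plates, cells were treated for 48 hours with each compound at five concentrations. Insufficient inhibition: endpoint recorded as highest concentration tested. At the GI50, growth is halved. Definition used: TGI = concentration required for complete inhibition of growth.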 Activity calls are given as the source filed them. No stated cut-off is given here; in the data, active means GI50 below about 0.43 µM; inactive means the rest.

Turning to `COc1cc2nncc(Sc3cnnc4ccccc34)c2cc1OC`, the TGI with M19-MEL melanoma is greater than 100 µM; in the assay with DMS 273 small cell lung, 81.7 µM; in the assay on DLD-1 colon, 49.6 µM; with DMS 114 small cell lung, greater than 100 µM; in the assay with HOP-18 NSCLC it was 37.8 µM.

`Clc1ccc([O][In]([O]c2ccc(Cl)cn2)[O]c2ccc(Cl)cn2)nc1`: the GI50 in the assay on M19-MEL melanoma, with DMS 273 small cell lung, in the assay on DLD-1 colon, in the assay on DMS 114 small cell lung and in the assay with HOP-18 NSCLC was greater than 100 µM in each case. The TGI in the assay on M19-MEL melanoma, in the assay on DMS 273 small cell lung, in the assay on DLD-1 colon, in the assay on DMS 114 small cell lung and in the assay with HOP-18 NSCLC was greater than 100 µM each time.

Take `CC(C)N(C(C)C)[PH+]1O[PH+](N(C(C)C)C(C)C)O[PH+](N(C(C)C)C(C)C)O[PH+](N(C(C)C)C(C)C)O[PH+](N(C(C)C)C(C)C)O1.[C-]#[O+].[C-]#[O+].[C-]#[O+].[C-]#[O+].[C-]#[O+].[C-]#[O+].[C-]#[O+].[Cr].[Cr]` (stereo unspecified): the GI50 in the assay with M19-MEL melanoma, in the assay with DMS 273 small cell lung, in the assay with XF 498 CNS, in the assay on DLD-1 colon, in the assay with DMS 114 small cell lung and with HOP-18 NSCLC was greater than 100 µM each time. The TGI in the assay with M19-MEL melanoma, in the assay on DMS 273 small cell lung, in the assay with XF 498 CNS, in the assay with DLD-1 colon, with DMS 114 small cell lung and in the assay with HOP-18 NSCLC was greater than 100 µM throughout.

Turning to `CSc1ccc(/C=C2\CNC/C(=C\c3ccc(SC)cc3)C2=O)cc1`, the GI50 was 46.2 µg/mL in the assay on DMS 273 small cell lung; 150 µg/mL (≈ 408 µM) in the assay on NCI/ADR-RES ovarian; 45.1 µM and 142 µg/mL in the assay on DLD-1 colon; 54.1 µg/mL with DMS 114 small cell lung; 111 µM with HOP-18 NSCLC. In addition, the TGI in the assay with DMS 273 small cell lung was 150 µg/mL; with NCI/ADR-RES ovarian, 150 µg/mL; with XF 498 CNS, 16.8 µM; in the assay with DLD-1 colon, > 371 µM and 150 µg/mL; in the assay with T-47D breast it was greater than 371 µM; in the assay on DMS 114 small cell lung it was 132 µM and 150 µg/mL. Moreover, the TGI in the assay with HOP-18 NSCLC was greater than 371 µM. The result in the assay on XF 498 CNS and with HOP-18 NSCLC was inactive.

As to `Cc1cc(C)c2c(c1)CN1CN2Cc2cc(C)cc(C)c21`, the TGI with M19-MEL melanoma was found to be 53.4 µM; in the assay on DMS 273 small cell lung, 37.2 µM; in the assay with XF 498 CNS, 33.4 µM; in the assay on DLD-1 colon, 58.3 µM; in the assay on HOP-18 NSCLC, 80.3 µM.

As to `CCC1(Br)C(=O)NC(=O)N(C2CC(O)C(CO)O2)C1N=[N+]=[N-]` (stereo unspecified), the TGI with M19-MEL melanoma, with DMS 273 small cell lung, in the assay with XF 498 CNS, with DLD-1 colon and in the assay with DMS 114 small cell lung was greater than 100 µM throughout.

As to `COc1ccc([C@H]2CC(=O)N3CCCC3N2)cc1` (stereo partly specified), the TGI with M19-MEL melanoma, in the assay with DMS 273 small cell lung, in the assay on XF 498 CNS, in the assay on DLD-1 colon, in the assay with DMS 114 small cell lung and in the assay with HOP-18 NSCLC was greater than 100 µM throughout.

Consider `Fc1cccc(Cl)c1C1SCc2nc3ccccc3n21` (stereo unspecified), for which the TGI with M19-MEL melanoma was 89 µM; in the assay with DMS 273 small cell lung, 57.9 µM; in the assay on XF 498 CNS, 66.1 µM; with DLD-1 colon it was greater than 100 µM; in the assay with DMS 114 small cell lung, 65.6 µM; in the assay on HOP-18 NSCLC, greater than 100 µM.

Regarding `COC(=O)c1nc(NN)[nH]c(=O)c1CCCCCc1c(C(=O)OC)[nH]c(NN)cc1=O`, the TGI in the assay with M19-MEL melanoma, in the assay with DMS 273 small cell lung, in the assay on XF 498 CNS, with DLD-1 colon, in the assay on DMS 114 small cell lung and in the assay with HOP-18 NSCLC was greater than 100 µM throughout.

On to `O=C1[C@@H](c2ccc(Cl)cc2)[C@H]2CC=C[C@H]2N1O`, for which the TGI in the assay with M19-MEL melanoma, in the assay on DMS 273 small cell lung, in the assay on XF 498 CNS, in the assay with DLD-1 colon and in the assay with DMS 114 small cell lung was greater than 100 µM in each case.

For the molecule `Cc1cc(Cl)ccc1NC(=O)C(=O)Cc1nc2ccc(C(=O)c3ccccc3)cc2[nH]c1=O`, the TGI in the assay with M19-MEL melanoma, with DMS 273 small cell lung, with XF 498 CNS, in the assay on DLD-1 colon, with DMS 114 small cell lung and in the assay with HOP-18 NSCLC was greater than 100 µM throughout.

With `C=C(C)C1CC2C(C)=C(OC(C)=O)C1n1c(=O)c3cc4ccccc4cc3c(=O)n12` (stereo unspecified), the TGI in the assay on M19-MEL melanoma, in the assay on DMS 273 small cell lung, in the assay on DLD-1 colon, in the assay on DMS 114 small cell lung and in the assay on HOP-18 NSCLC was greater than 100 µM in each case.

As for `CC[O-].CC[O-].O=C1C(=C([O-])c2ccccc2)C(=O)c2ccccc21.O=C1C(=C([O-])c2ccccc2)C(=O)c2ccccc21.[Ti+4]`, the GI50 in the assay with DMS 273 small cell lung is 54.8 µM; in the assay with DLD-1 colon it was 93.2 µM; in the assay on HOP-18 NSCLC, greater than 100 µM. For the same molecule, the TGI in the assay with DMS 273 small cell lung, with DLD-1 colon and in the assay on HOP-18 NSCLC was greater than 100 µM in each case.

On to `COc1ccc(C2C(Cl)C(=O)N2n2cnc3ccccc3c2=O)cc1OC` (stereo unspecified), for which the TGI with M19-MEL melanoma, in the assay with DMS 273 small cell lung, in the assay on XF 498 CNS, in the assay with DMS 114 small cell lung and in the assay on HOP-18 NSCLC was greater than 100 µM each time.

For the molecule `Cc1cc(O)c2c(c1)C(O)(c1ccc3c(c1O)C(=O)c1c(O)cc(C)cc1C3(O)C1OC(CO)C(O)C(O)C1O)c1cccc(O)c1C2=O` (stereo unspecified), the TGI with M19-MEL melanoma worked out at 24.8 µM; with DMS 273 small cell lung it was 30.4 µM; with XF 498 CNS it was 16.7 µM; in the assay with DLD-1 colon, 23.7 µM; with DMS 114 small cell lung, 22.7 µM; in the assay on HOP-18 NSCLC, 8.38 µM.

With `O=[N+]([O-])c1ccc(N=Nc2c(O)[nH]c3ccc([N+](=O)[O-])cc23)cc1`, the TGI with M19-MEL melanoma was 36.9 µM; in the assay with DMS 273 small cell lung, 33.6 µM; with XF 498 CNS, 32.3 µM; with DLD-1 colon it was greater than 100 µM; in the assay with DMS 114 small cell lung it was 86.3 µM.

Regarding `O=C(C(=O)c1ccc(Cc2ccc(C(=O)C(=O)c3ccccc3)cc2)cc1)c1ccccc1`, the TGI in the assay on M19-MEL melanoma, in the assay on DMS 273 small cell lung, in the assay with DLD-1 colon, in the assay on DMS 114 small cell lung and in the assay on HOP-18 NSCLC was greater than 100 µM each time.

Regarding `CSc1nc2c(c(O)c(C)c(=O)n2C2OC(COC(C)=O)C(OC(C)=O)C(OC(C)=O)C2OC(C)=O)c(=O)n1C` (stereo unspecified), the TGI with DMS 273 small cell lung, in the assay on XF 498 CNS, in the assay with DLD-1 colon, in the assay on DMS 114 small cell lung and in the assay with HOP-18 NSCLC was greater than 100 µM throughout.

Turning to `COC(=O)c1ccc2c(c1)C(NC(C)=O)CCc1cc(OC)c(OC)c(OC)c1-2` (stereo unspecified), the TGI in the assay on M19-MEL melanoma was greater than 100 µM; in the assay on DMS 273 small cell lung, greater than 100 µM; with NCI/ADR-RES ovarian it was 3.71 µM; with XF 498 CNS, greater than 100 µM; in the assay with DLD-1 colon, greater than 100 µM; in the assay on T-47D breast it was greater than 100 µM. Further, the TGI with MDA-N was less than 0.01 µM; with DMS 114 small cell lung it was 0.0356 µM; with HOP-18 NSCLC it was greater than 100 µM.

Turning to `O=c1nc(-c2ccccc2)c2c3c(cccn13)CCC2`, the TGI with M19-MEL melanoma, with DMS 273 small cell lung, in the assay with XF 498 CNS, in the assay with DLD-1 colon and in the assay on DMS 114 small cell lung was greater than 100 µM each time.

For the molecule `O=C(CCc1nc(=S)[nH][nH]1)NC12CC3CC(CC(C3)C1)C2`, the TGI in the assay with M19-MEL melanoma, with DMS 273 small cell lung, with XF 498 CNS, with DLD-1 colon, with DMS 114 small cell lung and in the assay with HOP-18 NSCLC was greater than 100 µM in each case.

In the case of `O=C1c2ccccc2N2OC3(N4CCCC4)CCCC3C12c1ccccc1` (stereo unspecified), the TGI in the assay with M19-MEL melanoma, with DMS 273 small cell lung, in the assay on XF 498 CNS, in the assay on DLD-1 colon, in the assay on DMS 114 small cell lung and with HOP-18 NSCLC was greater than 100 µM each time.

On to `Cc1cc([N+](=O)[O-])c(C)c2c1[nH]c1ccc(/C(CCC3CCCC3)=N\N)cc12`, for which the TGI in the assay with M19-MEL melanoma was 37.2 µM; in the assay on DMS 273 small cell lung it was 36.3 µM; with XF 498 CNS, 28.1 µM; with DMS 114 small cell lung, 35.2 µM; in the assay on HOP-18 NSCLC, 23.8 µM.

For `COc1cc(C2c3cc4c(cc3[C@@H](Nc3ccc(N(C)C)cc3)[C@H]3COC(=O)C23)OCO4)cc(OC)c1O` (stereo partly specified), the GI50 in the assay with M19-MEL melanoma is 2.53 µM; in the assay with DMS 273 small cell lung, 0.202 µM; in the assay on XF 498 CNS, 2.27 µM; in the assay on DLD-1 colon, 2.19 µM; in the assay with DMS 114 small cell lung, 0.596 µM. In addition, the TGI in the assay with M19-MEL melanoma is 12.3 µM and 16.5 µM; in the assay with DMS 273 small cell lung, 0.877 µM and 2.47 µM; in the assay on XF 498 CNS, 10.9 µM and 13.3 µM; in the assay with DLD-1 colon, 9.22 µM and 12.4 µM; with DMS 114 small cell lung, 2.95 µM and 3.2 µM; in the assay on HOP-18 NSCLC it was 17 µM.

With `COc1ccc(C(C2=C(C)C(=O)c3ccccc3C2=O)c2ccc(C(C)C)cc(=O)c2O)cc1` (stereo unspecified), the TGI was determined as 4.92 µM with M19-MEL melanoma; 5.4 µM with DMS 273 small cell lung; 34.1 µM with XF 498 CNS; 18.4 µM with DLD-1 colon; 8.54 µM in the assay with DMS 114 small cell lung.

With `N=C(N)SCc1cn2ccccc2n1`, the TGI with M19-MEL melanoma, in the assay with DMS 273 small cell lung, in the assay with XF 498 CNS, in the assay on DLD-1 colon, in the assay with DMS 114 small cell lung and with HOP-18 NSCLC was greater than 100 µM throughout.

Turning to `CC1(C)C(=O)C(O)=CC2C1=CCC1C2(C)C(=O)CC2(C)C(C(C)(O)C(=O)CC(O)C(C)(C)O)C(O)CC12C` (stereo unspecified), the TGI in the assay on M19-MEL melanoma was greater than 97.2 µM; with DMS 273 small cell lung, 9.61 µM; in the assay with XF 498 CNS, 6.34 µM; in the assay on DLD-1 colon, greater than 74.6 µM; with DMS 114 small cell lung it was 45.9 µM; with HOP-18 NSCLC it was 12.3 µM.

Regarding `CCc1ccccc1NC(=O)C(=O)C(C(=O)c1ccc(OC)cc1)c1ccc(OC)cc1` (stereo unspecified), the TGI in the assay on DMS 273 small cell lung, with XF 498 CNS, with DLD-1 colon, in the assay with DMS 114 small cell lung and in the assay with HOP-18 NSCLC was greater than 100 µM each time.

The record behind these values is PubChem BioAssay (NCI).
